Source: US6365614B1, “Fungicides mixtures” (priority 1997, dated 2002)

System: Plasmopara viticola
Assay: Curative action against Plasmopara viticola on potted grapevines
Format: in vivo, Plasmopara viticola on grapevines cv. Müller-Thurgau
Conditions: grapevine leaves, untreated control 73% infection
Procedure: Curative action against Plasmopara viticola
Leaves of potted grapevines cv. “Müller-Thurgau” were inoculated with an aqueous zoospore suspension of Plasmopara viticola. The grapevines were subsequently kept in a water-vapor-saturated chamber at 22-24° C. for 48 hours. They were then removed from the chambers and, after they had dried, sprayed to run off point with an aqueous preparation of active compound which had been prepared from a stock solution comprising 10% of active compound, 63% of cyclohexanone and 27% of emulsifier. After the spray coating had dried on, the plants were cultivated for another 5 days in the greenhouse at 20-30° C. After this time, the plants were returned into a humid chamber for 16 hours to accelerate the eruption of sporangiophore. The extent to which the disease had developed on the undersides of the leaves was then determined visually in %.
Evaluation is carried out by determining the infected leaf areas in percent. These percentages are converted into efficacies. The expected efficacies of the active compound mixtures are determined using Colby's formula [R. S. Colby, Weeds 15, 20-22 (1967)] and compared with the observed efficacies. Colby's formula: […]
expected efficacy, expressed in % of the untreated control, when using the mixture of the active compounds A, B and C at the concentrations a, b and c x efficacy, expressed in % of the untreated control, when using active compound A at a concentration of a y efficacy, expressed in % of the untreated control, when using active compound B at a concentration of b z efficacy, expressed in % of the untreated control, when using active compound C at a concentration of c The efficacy(E) is calculated as follows using Abbot's formula: […]
α corresponds to the fungal infection of the treated plants in % and β corresponds to the fungal infection of the untreated (control) plants in % An efficacy of 0 means that the infection level of the treated plants corresponds to that of the untreated control plants; an efficacy of 100 means that the treated plants were not infected.

[1] = 1 ppm active compound in the spray liquor

| Compound | Efficacy in % of the untreated control [1] | Efficacy in % of the untreated control (4 ppm active compound in the spray liquor) | Efficacy in % of the untreated control (16 ppm active compound in the spray liquor) |
| --- | --- | --- | --- |
| Cc1cccc(C)c1N(C(=O)CCl)C1CCOC1=O (stereo not shown) [II.2, Ofurace] | 0% | 73% | 73% |
| COCC(=O)N(c1c(C)cccc1C)C(C)C(=O)OC (stereo not shown) [II.3, metalaxyl] | 59% | – | – |
